Test results from a melting point compilation (Tetko et al.; mined from patent text by program, amines drawn as free bases though some values may be those of a salt).

For `O=C(O)CN1C[C@@H](Cc2c[nH]c3ccccc23)N(C(=O)c2cc(C(F)(F)F)cc(C(F)(F)F)c2)CC1=O`, the melting point was greater than 220 °C. With `O=C1NCCc2ccc(OCCCCN3CCN(c4cccc5c4OCCC5)CC3)nc2N1` the melting point was 154 to 156 °C. Work on `CCCCCCCCCCOc1ccc(OCCCC#CCOC)cc1` yielded a melting point of 33 to 34 °C. Molecule `COc1ccc(-n2c(C)nc3ccccc32)cc1` has a melting point of 121 to 123 °C. `O=C1c2cc(Cl)ccc2Cc2cccc(Cl)c21` showed a melting point of 160 to 165 °C. In the case of `O=C1C=CC2(C=C1)N=C(N1CCN(Cc3ccccc3)CC1)C=C2c1ccccc1`, the melting point is reported as 190 °C. `CC(=O)Nn1c(-c2ccccc2)nc2cc(C(F)(F)F)ccc21` gave a melting point of 150 to 154 °C. With `COc1cc(Oc2ccc(S(C)(=O)=O)cc2)cc2cc(C3=NCC(CC(N)=O)S3)[nH]c12` (stereo unspecified) the melting point was 169 to 170 °C. Work on `O=C(O)Cc1ccc2c(c1)sc1ccccc12` yielded a melting point of 174 to 176 °C. Molecule `NNC(=O)c1ccccc1OCC(F)(F)F` has a melting point of 102 to 104 °C. For `COc1cc2c(cc1OC)[C@@H]1CCCC[C@@H]1N=C2c1ccc(N(S(=O)(=O)c2ccc([N+](=O)[O-])cc2)S(=O)(=O)c2ccc([N+](=O)[O-])cc2)cc1` (racemic), the melting point was 234 °C. `Nc1ccc(C=Cc2ccncn2)cc1` gave a melting point of 227 to 230 °C. Molecule `CCCCc1nn(-c2ccccc2C(F)(F)F)c(=O)n1Cc1ccc(-c2ccccc2S(=O)(=O)NC(=O)c2ccccc2Cl)cc1F` has a melting point of 88 to 90 °C. `COc1cc2c(cc1-c1cccnc1)-c1c(C3=CCOCC3)c3c(n1CC2)C(=O)N(C(C)(C)C)CCCC3` showed a melting point of 208 to 210 °C. `CC(C)c1cc(/C=C/C(=O)O)n(Cc2ccc(Cl)cc2Cl)n1` gave a melting point of 174 to 175 °C. With `OC(CCCl)COc1ccc(F)cc1` (stereo unspecified) the melting point was 53 to 55 °C. In the case of `CCn1c(COC(=O)NC(=O)C(C)(C)C)nc(C(C)C)c1Sc1cc(Cl)cc(Cl)c1`, the melting point is reported as 157 to 159 °C. `O=C(O)c1ccc(N2C(=O)C3C4C=CC(CC4)C3C2=O)cc1` (stereo unspecified) gave a melting point of 269 °C. In the case of `Nc1c(CC(=O)O)cccc1Nc1ccc(Cl)cc1`, the melting point is reported as 190 to 192 °C. With `CC1=C(C(=O)NC(C)(C)C)C(c2ccccc2Cl)C(C(=O)OC(C)C)=C(COCCCc2nc3ccccc3n2C)N1` (stereo unspecified) the melting point was 216 °C. `Cc1cc(-n2cc(C#N)nc2C)cc2ccc(=O)[nH]c12` showed a melting point greater than 350 °C. For `CC(COc1ccc(C(=O)O)c(O)c1)C[Si](C)(O[Si](C)(C)C)O[Si](C)(C)C` (stereo unspecified), the melting point was 117 to 118 °C. Molecule `O=C(O)CCCCc1ccn2cncc2c1` has a melting point of 158 to 161 °C. `CCOC(=O)NC(=O)C(C#N)=CNc1c(Cl)cc(Cl)cc1Cl` gave a melting point of 245 to 247 °C. `CCc1nc(OC)c(NC(=O)N2CCN(c3cc(OC)cc(OC)c3)CC2)cc1C(=O)Nc1cc(CO)cc(Nc2c3ccccc3nc3ccccc23)c1` showed a melting point of 170 to 172 °C. With `CC(C(=O)O)c1ccc2c(c1)Cc1cc(F)ccc1S2` (stereo unspecified) the melting point was 140 to 145 °C. Work on `C#CC(O)c1cccc2ccncc12` (stereo unspecified) yielded a melting point of 138 to 139 °C. Work on `COc1cc2c(cc1OC)C(COCCCl)OCCC2` (stereo unspecified) yielded a melting point of 90 to 91 °C. With `O=Cc1ccc(OS(=O)(=O)C(F)(F)F)c2ccccc12` the melting point was 44 to 47 °C. In the case of `Cn1ncnc1COc1nn2c(-c3ccccc3F)nnc2cc1C12CCC(C1)C2`, the melting point is reported as 198 to 200 °C. With `CCOC(=O)c1c(CN(CC)CC)nc2sc3c(c2c1-c1ccc(OC)c(OC)c1)CCN(C(=S)Nc1ccccc1)C3` the melting point was 104 to 106 °C. With `CC(C)(C)c1cccc(CC(O)CO)c1OCc1ccccc1` (stereo unspecified) the melting point was 79 to 81 °C. With `CC(=N)NS(=O)(=O)c1cc(I)cc(C#N)c1` the melting point was 177 to 178 °C. `CCOC(=O)c1c(CCc2ccccc2)nc2c(cnn2CC)c1O` showed a melting point of 153 to 155 °C. In the case of `CN(c1ccccc1)S(=O)(=O)c1ccc(NC(=O)C(C)(O)C(F)(F)F)cc1` (stereo unspecified), the melting point is reported as 147 to 149 °C. `NC(=O)N1C(=O)C(C(=O)c2cccs2)c2nc(Cl)ccc21` (stereo unspecified) showed a melting point of 222 to 224 °C. With `CCOc1ccccc1OC(c1ccccc1)C(O)CO` (stereo unspecified) the melting point was 68 to 70 °C. Molecule `c1ccc(COc2ccc(Nc3ccn(-c4ccccc4)n3)cc2)cc1` has a melting point of 145 to 146 °C. With `C=CCOC(=O)C(Cc1ccc2ccc3cccc4ccc1c2c34)(Cc1ccc2ccc3cccc4ccc1c2c34)C(=O)OCC=C` the melting point was 178 to 180 °C. Work on `CCn1c(C(=O)N(C)Cc2cc(C(F)(F)F)cc(C(F)(F)F)c2)c(-c2ccccc2)c2ccccc2c1=O` yielded a melting point of 105 to 106 °C. `CC(=O)c1c2c(c(C)[nH]c1=O)CC(c1ccccn1)CC2` (stereo unspecified) showed a melting point of 254 to 256 °C. Molecule `Cc1ccc(C(c2ccc(C)cc2)N2CCCC2)cc1` has a melting point of 61 to 63 °C. For `COc1ccc(-c2cc(=O)c3c(OC)cc(OC)c(C4=CCN(C)CC4)c3o2)c(OC)c1OC`, the melting point was 209 to 210 °C. Work on `CC(=O)OCc1nnc(-c2ccc3occ(-c4cccc(OC(F)(F)F)c4)c3c2)o1` yielded a melting point of 93 to 94 °C. Work on `Oc1ccc(Nc2ccn(-c3ccccc3)n2)cc1` yielded a melting point of 147 to 148 °C. Molecule `CN(C)c1ccc(-c2cccc3c2C2(COc4cc5c(cc42)OCO5)C(=O)N3)cn1` (stereo unspecified) has a melting point greater than 245 °C. `CCOc1cc(C(F)(F)F)cc(Cl)c1-n1nc(C#N)c(SC(F)(F)F)c1N` showed a melting point of 166 °C. Work on `COc1ccc(N2CCN(c3c(C)c(C)c4c(c3C)CC(C)(C)O4)CC2)c(OC)c1` yielded a melting point of 154 to 156 °C. `CC(=O)Nc1cccc2c1C(=O)C1(NC(C)=O)c3ccc(C(C)C)cc3OC21O` (stereo unspecified) showed a melting point of 189 to 191 °C. In the case of `O=C(Nc1n[nH]c2cc(Cl)ccc12)c1cc(Cl)cc(Cl)c1`, the melting point is reported as 240 °C. Work on `CCC(CC)(CC(=O)Nc1cccc(/C=C/c2nc(C3CCCC3)cs2)c1)C(=O)O` yielded a melting point of 172 to 174 °C. `O=C([C@H]1CC[C@H](Nc2ncc3ncnc(Nc4ccc(F)c(Cl)c4)c3n2)CC1)N1CCOCC1` gave a melting point of 221 to 225 °C. `Cc1cc(CN(Cc2cccs2)c2sc(-c3ccc(C(F)(F)F)cc3)nc2C)ccc1OC(C)(C)C(=O)O` showed a melting point of 100 °C. Work on `COc1cc(OCC2CCCO2)ccc1/C=C/c1cc(/C=C/c2ccc3cc[nH]c3c2)n[nH]1` (stereo unspecified) yielded a melting point of 218 to 220 °C. For `CC(C)(CCn1ccnc1)NCC(O)c1ccc(O)c(CO)c1` (stereo unspecified), the melting point was 135 to 137 °C. Work on `CCCCc1nc2c(N)nc3cc(-c4ccccc4)ccc3c2n1CC(C)C` yielded a melting point greater than 250 °C. For `Cc1ccc(S(=O)(=O)Nc2ccc(SC#N)cc2[N+](=O)[O-])cc1`, the melting point was 121 to 122 °C. `NNc1nncc(-c2ccc(F)cc2)n1` gave a melting point of 228 to 231 °C. Work on `CCOC(=O)C=CC(=S)c1ccc(-c2ccccc2)cc1` yielded a melting point of 74 to 75 °C. With `CS(=O)(=O)c1ccc(-c2cc(CO[N+](=O)[O-])nn2Cc2ccccc2)cc1` the melting point was 94 to 96 °C. Work on `O=C(O)[C@@H]1CSC(c2ccccc2O)N1C(=O)CCBr` (stereo partly specified) yielded a melting point of 109 to 115 °C. Molecule `CCOC(=O)C(C1c2ccccc2C=Cc2ccccc21)[N+](=O)[O-]` (stereo unspecified) has a melting point of 101 to 103 °C. In the case of `COc1cc(COc2nn(C)cc2CO)ccc1OCc1nc(-c2ccco2)oc1C`, the melting point is reported as 132 to 133 °C. With `Cc1nc(O)cc(C(C)(C)C)n1` the melting point was 131 to 132 °C. With `Fc1cccc2c(NCCc3cccs3)ccnc12` the melting point was 157 to 158 °C. With `CCN(CC)CC(=O)OC1CC2(C)C(C(C)=O)CCC2C2CCC3CC(O)C(Cl)CC3(C)C12` (stereo unspecified) the melting point was 182 to 187 °C. In the case of `CCCCCCCCCCCC(=O)Oc1ccc2cc(C(=N)N)ccc2c1`, the melting point is reported as 149 to 151 °C. Work on `CC(=O)CC(=O)C=Cc1ccccc1` yielded a melting point of 82 °C. Molecule `CN1C(=O)C2CC(c3ccc(Cl)cc3)(C2)C1=O` has a melting point of 155 to 156 °C. With `CCCOc1cccc(-c2nn(C(C)c3oc4ccccc4c(=O)c3-c3cccc(F)c3)c3ncnc(N)c23)c1` (stereo unspecified) the melting point was 178 to 182 °C. For `COC(=O)c1ccc2[nH]cc(CCCCN3CCN(c4ccc5c(c4)OCCO5)CC3)c2c1`, the melting point was 177 to 179 °C. Molecule `O=C(O)[C@H](Cc1ccccc1)NS(=O)(=O)N1CCOCC1` has a melting point of 157 to 158 °C. With `CN(C)c1nc2sc3c(NCCN4CCOCC4)ncnc3c2c2c1COC(C)(C)C2` the melting point was 195 to 196 °C. Work on `COc1cc(CCCC2SC(=O)NC2=O)ccc1OCc1csc(CCc2ccccc2)n1` (stereo unspecified) yielded a melting point of 104 to 105 °C. Molecule `CNC(=O)c1sc(C(C)(C)C)cc1NC(=O)Nc1ccc(C)cc1` has a melting point of 202 to 204 °C. With `COC(=O)CCCCCCCNC(=O)C(COS(C)(=O)=O)NS(=O)(=O)c1ccc(Cl)cc1` (racemic) the melting point was 90 to 95 °C. `CC(C(=O)O)c1cc(Cl)c(N2CCOCC2)cc1O` (stereo unspecified) gave a melting point of 198 to 200 °C. For `CCOC(=O)c1cc2c3n(ccc-2n1)C(Br)C=N3` (stereo unspecified), the melting point was 280 to 282 °C. Molecule `CNC(=O)C(=NOC)c1cccc(Cl)c1COc1ccc(Sc2ccc(Cl)cc2)cn1` has a melting point of 116 to 118 °C. Molecule `CC1CC2C3CCC4CC(O)CCC4(C)C3C(=O)CC2(C)C1C1(C)OCCO1` (stereo unspecified) has a melting point of 122 to 124 °C. With `NC(=O)c1c2ccsc2nc2c1c1ccccc1n2Cc1ccccc1` the melting point was 242 to 245 °C. For `COc1cc2ncc(C#N)c(Nc3ccc(C)c(Br)c3)c2cc1OC`, the melting point was 292 to 294 °C. With `CCOC(=O)c1nc(S(C)(=O)=O)n(C)c(=O)c1OCc1ccccc1` the melting point was 84 to 85 °C. For `CC(C)(C)OC(=O)N1CCC(CC(O)c2c3c(nn2-c2ccccc2)c(=O)[nH]c2ccccc23)CC1` (stereo unspecified), the melting point was 253 to 254 °C. `N#CC(=CNC1CC1)C(=O)c1ccc(Cl)cc1Cl` showed a melting point of 93 to 94 °C. `Cn1cc(C(=O)c2ccc3ccccc3c2)cc1C(=O)c1cccnc1` showed a melting point of 132 to 133 °C. Molecule `CCCc1nn(C)c(C(N)=O)c1NC(=O)c1cc2cccc(OCC)c2o1` has a melting point of 219 to 221 °C. Work on `O=C(NS(=O)(=O)c1cccc([N+](=O)[O-])c1)c1ccccc1Cl` yielded a melting point of 135 °C. `CCCCCC(COc1ccc(C(=O)O)cc1)c1ccc2c(c1)C(C)(C)CC(C)(C)O2` (racemic) gave a melting point of 94 to 96 °C. Work on `COc1ccccc1OCC(O)CN1CCCC(Cn2c(=O)[nH]c3ccc(Cl)cc32)C1` (stereo unspecified) yielded a melting point of 167 °C. In the case of `c1cc2c(cc1NC1=NCCN1)CCC2`, the melting point is reported as 41 to 42 °C. For `CCc1cc(-c2ccc(Cl)cc2)nc2c(C(=O)Nc3cccc(S(C)(=O)=O)c3)cnn12`, the melting point was 230 to 232 °C. Molecule `CN(C)S(=O)(=O)c1cc(-c2csc(=Nc3ccc(Cl)cc3)n2C)ccc1Cl` has a melting point of 184 °C. In the case of `O=C(N1CCCC1)n1c(CN2CCN(c3ccccn3)CC2)nc2ccccc21`, the melting point is reported as 120 to 121 °C. Molecule `O=C1c2c(O)cccc2C(O)(c2cccs2)c2cccc(O)c21` has a melting point of 191 to 192 °C. Molecule `CSc1ccc2cccc(CCNC(=O)C3CC3)c2c1` has a melting point of 96 to 98 °C.
